This experiment addresses T1, 6xHis-SUMO-TRAF2 (residues 315–501) TRAF-C domain (Homo sapiens, UniProt Q12933).
T1 sequence (Q12933 315-501): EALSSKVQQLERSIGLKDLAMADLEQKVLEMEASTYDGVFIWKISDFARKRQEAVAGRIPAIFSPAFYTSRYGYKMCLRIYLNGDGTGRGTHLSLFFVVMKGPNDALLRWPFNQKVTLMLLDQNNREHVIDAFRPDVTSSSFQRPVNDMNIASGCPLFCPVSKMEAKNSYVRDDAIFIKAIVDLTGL
As to the kind of experiment: Fluorescence polarization (FP) binding assay, TRAF2 TRAF-C domain. Particulars: summary range stated for TRAF2 and TRAF3 TRAF-C together, read-out: Binding affinities between the PIQAS peptide and SUMO-TRAF-C proteins (range). In general terms: Fluorescence polarisation rises when a labelled molecule tumbles more slowly, as on binding a larger partner.

Where a SMILES comes first, the peptide text is derived from it. The star is where a group is joined. 5FAM = O=C1OC2(c3ccc(O)cc3Oc3cc(O)ccc32)c2ccc(C(=O)*)cc21; Ahx = NCCCCCC(=O)O

Consider `CC[C@H](C)[C@H](NC(=O)[C@@H]1CCCN1C(=O)CCCCCNC(=O)c1ccc2c(c1)C(=O)OC21c2ccc(O)cc2Oc2cc(O)ccc21)C(=O)N[C@@H](CCC(N)=O)C(=O)N[C@@H](C)C(=O)N[C@@H](CO)C(N)=O` [PIQAS peptide] ({5FAM-Ahx}-PIQAS-NH2), for which the Kd was 150 to 200 µM.

The values above are taken from article PMC10675646 (Viruses, 2023).
